Data taken from patent publication US8114986B2, “Analogous compounds of 6-thioguanosine triphosphate, their use in medical fields and processes for their preparation” (Giuliani International Limited, priority 2005, dated 2012).

What was measured:
human CD4+ T Lymphocytes = assay: Induction of apoptosis in CD3/CD28 costimulated T lymphocytes, annexin V / propidium iodide FACS; assay type: cell-based; details: for induction of apoptosis: 5 μM added at day 0, CD3/CD28 costimulated T lymphocytes; for induction of apoptosis / induction of apoptosis compared with azathioprine or 6-mercaptopurine mediated induction: 3, 4 or 5 days, FIGS. 2-4; for induction of apoptosis compared with azathioprine or 6-mercaptopurine mediated induction: 5 μM; for apoptosis induction: FIGS. 5 and 6, at least three experimental data sets, primary T cells of different donors
Description: Human peripheral blood mononuclear cells (PBMC) from 4 buffycoats were isolated using Ficoll-Hypaque gradients. PBMC were further purified using CD4 monoclonal antibodies attached to immunomagnetic microbeads according to the protocol provided by the manufacturer (Miltenyi Biotec). […] Azathioprine, 6-Mercaptopurine, V1, V2, V3, V4 or V5 were added to the T cell cultures at day 0 at a final concentration of 5 μM. To determine induction of apoptosis in these T lymphocytes, cells were analyzed by FACS. For FACS analysis, apoptotic cells were detected by staining with annexin V and propidium iodide using the Annexin V FITC Apoptosis Detection Kit I (PharMingen). In brief, T cells were washed twice in PBS, and the pellet was resuspended in annexin V binding buffer (PharMingen) at a concentration of 10^6 cells per milliliter. Annexin V FITC and propidium iodide were added (5 μl of each per 10^5 cells), Samples were gently mixed and incubated for 15 minutes at room temperature in the dark before FACS analysis.
• Annexin-positive, propidium iodide-negative cells (black bars) present the rate of early apoptotic cells. Annexin-positive, propidium iodide-positive cells (white bars) present late apoptotic or necrotic cells. • Induction of apoptosis=(Rate of apoptotic cells after indicated treatment)−(Rate of apoptosis of untreated cells) • V1, V2 and V3 were tested in 4 independent experiments. V4 and V5 were tested in 2 independent experiments.

caspase-3/7 in T cells = assay: Caspase-Glo 3/7 Assay in stimulated CD4+ T cells; assay type: cell-based, human; details: day three of culture; untreated cells = 100%; three experiments; FIG. 8
Description: FIG. 8: Caspase-graph: Luminescence value of untreated cells was defined as 100% Caspase activity. Due to their specific luminescence value the caspase activity of treated cells were calculated accordingly. Induction of Caspase activityx[%]=Caspase activityx[%]−Caspase activityuntreated[%]. Means±SEM (Standart Error of the Mean=Standard deviation/radical(n)) of three different experiments are presented.
In addition, an alternative method was performed for screening of group-D derivatives (FIG. 8). It was decided to analyse the activity of caspase-3/7 in T cells, which were treated with group-D derivatives. As compared to AnnexinV/PI staining this new method might have some advantages: • It is an easier protocol. Therefore there are fewer possibilities for individual errors. • Increased activity of caspase-3 is very specific for apoptosis. Therefore this method is very sensitive for the detection of apoptosis. There is no interfering influence of necrotic cells. • The measurement is done in duplicate. In this way there is an internal control.
The Caspase-Glo 3/7 Assay (Promega™) was used. This assay is based on a caspase dependent luminescent signal. Protocol: CD4^+ T cells were isolated from human blood by magnetic beads (Dynal). T lymphocytes were stimulated in complete RPMI-1640 medium (RPMI-1640+10% FCS+100 U/ml Penicillin/Streptomycin+3 mM L-Glutamin) for 3 days with coated antibodies to CD3 (0.04 μg/ml) and soluble CD28 antibodies (PharMingen™; 1 μg/ml) plus IL-2 (R & D Systems™, Wiesbaden, Germany; 40 U/ml) in 96-well plates. Cells were treated with different group-D derivatives or were left untreated. At day three of culture Caspase-3/7 Assay was performed. 25 μl of Caspase-Glo 3/7 reagent was added to each well. Probes were mixed gently for 2 minutes and incubated at room temperature for 30 minutes. Finally 100 μl of each probe were transferred to a white walled 96-well luminometer plate and analysed in a plate-reading luminometer. The added reagent contains a specific substrate of caspase-3 and caspase-7. Cleavage of this substrate by activated caspase-3 results in luciferase reaction. Luminescence is proportional to the amount of caspase activity present (FIG. 8)

Rac1 = Rac1 (Homo sapiens, UniProt P63000); details: cited from earlier work
Solubility in water = assay type: physicochemical

Compound | induction of apoptosis (human CD4+ T Lymphocytes) | induction of caspase activity (caspase-3/7 in T cells) | further results
2′,3′-EDA-6-Thio-GTP [05B-0] | able to induce apoptosis | very effective | induction of apoptosis compared with azathioprine or 6-mercaptopurine mediated induction (human CD4+ T Lymphocytes): more pronounced and appeared earlier; apoptosis induction (human CD4+ T Lymphocytes): strongest candidate drug for apoptosis induction
Nc1nc2c(ncn2[C@@H]2O[C@H](COP(=O)(O)OP(=O)(O)OP(=O)(O)O)[C@@H](O)[C@H]2O)c(=S)[nH]1 [6-Thio-GTP, 6-thioguanosine triphosphate] |  | able to induce caspase activity | apoptosis induction (human CD4+ T Lymphocytes): on average was not able to induce apoptosis; affinity to Rac1, fold less in comparison with GTP (Rac1): 20 fold
Cn1ccc(NC(=O)[C@@H]2OC3C(COP(=O)(O)OP(=O)(O)OP(=O)(O)O)OC(n4cnc5c(=S)[nH]c(N)nc54)C3O2)n1 (some centres unmarked) [06D-13] |  | promising | 
Cc1cc(CNC(=O)[C@@H]2OC3C(COP(=O)(O)OP(=O)(O)OP(=O)(O)O)OC(n4cnc5c(=S)[nH]c(N)nc54)C3O2)nn1C (some centres unmarked) [06D-14] |  | promising | 
NCCCCCCNc1nc2c(ncn2[C@@H]2O[C@H](CO)[C@@H](O)[C@H]2O)c(=O)[nH]1 [V2, N-2-(6″-Aminohexyl)-guanosine] | not able to induce apoptosis |  | 
CC(=O)NCCCCCCNc1nc(O)c2ncn([C@@H]3O[C@H](COC(C)=O)C(OC(C)=O)C3OC(C)=O)c2n1 (some centres unmarked) [V3, 2′,3′,5′,o-Triacetyl-N-2-(Acetyl-6″-aminohexyl)-guanosine] | not able to induce apoptosis |  | solubility in water (Solubility in water): not soluble in water
CC(=O)OC[C@H]1O[C@@H](n2cnc3c(S)nc(NCCCCCCNC(C)=S)nc32)C(OC(C)=O)C1OC(C)=O (some centres unmarked) [V4, 2′,3′,5′-Triacetyl-N-2-(6″-thioacetamide-hexyl)-6-Thioguanosine] | not able to induce apoptosis |  | solubility in water (Solubility in water): not soluble in water
Aspartate-2,3′-EDA-6-Thio-GTP [05B-1] |  | less effective than 05B-0 | 
TAMRA-EDA-6-Thio-GTP [V5] | able to induce apoptosis |  | induction of apoptosis compared with azathioprine or 6-mercaptopurine mediated induction (human CD4+ T Lymphocytes): more pronounced and appeared earlier
